“Also recorded” adds a separate entry of the source.
Legend:
CDK6/CycD3 = CDK6/CycD3 (Homo sapiens, UniProt Q00534); assay: Kinase profiling; type: biochemical; details: 10 semi-logarithmic dilutions from 50 μM, singlicate
CDK5/p35NCK = CDK5/p35NCK (Homo sapiens, UniProt Q00535); assay: Kinase profiling; type: biochemical; details: 10 semi-logarithmic dilutions from 50 μM, singlicate
CDK12wt/CycK = CDK12wt/CycK (Homo sapiens, UniProt Q9NYV4); assay: Kinase profiling; type: biochemical; details: 10 semi-logarithmic dilutions from 50 μM, singlicate
DYRK2 = biological target: T1, DYRK2 (Homo sapiens, UniProt Q92630); assay: Kinase profiling; type: biochemical; details: 10 semi-logarithmic dilutions from 50 μM, singlicate; read-out: IC50 DYRK2
T1 sequence (Q92630 1-601): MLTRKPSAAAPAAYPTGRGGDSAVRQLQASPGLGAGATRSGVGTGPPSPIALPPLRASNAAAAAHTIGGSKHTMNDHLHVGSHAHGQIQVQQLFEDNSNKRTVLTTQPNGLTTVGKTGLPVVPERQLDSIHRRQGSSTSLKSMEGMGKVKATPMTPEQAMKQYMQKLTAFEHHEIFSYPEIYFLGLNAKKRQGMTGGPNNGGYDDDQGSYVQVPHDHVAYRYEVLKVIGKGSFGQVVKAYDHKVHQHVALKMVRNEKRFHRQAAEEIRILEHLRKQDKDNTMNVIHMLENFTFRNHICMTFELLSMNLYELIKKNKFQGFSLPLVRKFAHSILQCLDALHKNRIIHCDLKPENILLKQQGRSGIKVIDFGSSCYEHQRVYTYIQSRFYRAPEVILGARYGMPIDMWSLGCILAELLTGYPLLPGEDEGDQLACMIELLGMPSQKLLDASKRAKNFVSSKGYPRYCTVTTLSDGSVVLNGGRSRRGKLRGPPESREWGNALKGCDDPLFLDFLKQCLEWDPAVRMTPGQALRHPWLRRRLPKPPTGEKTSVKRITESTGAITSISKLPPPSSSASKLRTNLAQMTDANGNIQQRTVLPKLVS

CDK3/CycE1 = CDK3/CycE1 (Homo sapiens, UniProt Q00526); assay: Kinase profiling; type: biochemical; details: 10 semi-logarithmic dilutions from 50 μM, singlicate
CDK4/CycD3 = CDK4/CycD3 (Homo sapiens, UniProt P11802); assay: Kinase profiling; type: biochemical; details: 10 semi-logarithmic dilutions from 50 μM, singlicate
CDK2/CycA2 = CDK2/CycA2 (Homo sapiens, UniProt P24941); assay: Kinase profiling; type: biochemical; details: 10 semi-logarithmic dilutions from 50 μM, singlicate
[1] = system: MDA-MB-231 human breast cancer cells; assay: Cell cycle analysis (DNA content, flow cytometry); type: cell-based; details: GI50 concentration; FIG. 1
Protocol: FIG. 1 depicts DNA content profiles of MDA-MB-231 human breast cancer cells treated with subject compounds or commercial CDK inhibitors, showing the percentage of cells at the different cell cycle phases after 48 hours of the treatments indicated. (n=6 technical replicates).
Cells were collected by trypsinization, washed with PBS and fixed with cold 70% ethanol. Cells were treated with 250 μg/ml RNase (Qiagen) for 30 minutes at 37° C. and stained with 10 μg/ml Propidium Iodide (Sigma). Cell cycle was analyzed by flow cytometry using a LSR Fortessa Analyzer. Cell cycle profiles were generated and analyzed with FlowJo software.
Cells were collected by tripsinization at several times after treatment with the indicated compounds and, then, fixed with cold 70% Ethanol. DNA content was determined by staining with propidium iodide (10 μg/ml, Sigma Aldrich). Data acquisition was performed with a LSR Fortessa analyzer (BD Biosciences) and analysed using FlowJo software.

CDK6/CycD1 = CDK6/CycD1 (Homo sapiens, UniProt Q00534); assay: Kinase profiling; type: biochemical; details: 10 semi-logarithmic dilutions from 50 μM, singlicate
CDK19/CycC = CDK19/CycC (Homo sapiens, UniProt Q9BWU1); assay: Kinase profiling; type: biochemical; details: 10 semi-logarithmic dilutions from 50 μM, singlicate
CDK9/CycK = CDK9/CycK (Homo sapiens, UniProt P50750); assay: Kinase profiling; type: biochemical; details: 10 semi-logarithmic dilutions from 50 μM, singlicate
CDK1/CycA2 = CDK1/CycA2 (Homo sapiens, UniProt P06493); assay: Kinase profiling; type: biochemical; details: 10 semi-logarithmic dilutions from 50 μM, singlicate
CDK1/CycE1 = CDK1/CycE1 (Homo sapiens, UniProt P06493); assay: Kinase profiling; type: biochemical; details: 10 semi-logarithmic dilutions from 50 μM, singlicate
ERK1 = ERK1 (Homo sapiens, UniProt P27361); assay: Kinase profiling; type: biochemical; details: 10 semi-logarithmic dilutions from 50 μM, singlicate
CDK5/p25NCK = CDK5/p25NCK (Homo sapiens, UniProt Q00535); assay: Kinase profiling; type: biochemical; details: 10 semi-logarithmic dilutions from 50 μM, singlicate
PCTAIRE1/CycY = PCTAIRE1/CycY (Homo sapiens, UniProt Q00536); assay: Kinase profiling; type: biochemical; details: 10 semi-logarithmic dilutions from 50 μM, singlicate
PIM1 = PIM1 (Homo sapiens, UniProt P11309); assay: Kinase profiling; type: biochemical; details: 10 semi-logarithmic dilutions from 50 μM, singlicate
HIPK2 = HIPK2 (Homo sapiens, UniProt Q9H2X6); assay: Kinase profiling; type: biochemical; details: 10 semi-logarithmic dilutions from 50 μM, singlicate; read-out: IC50 HIPK2
CDK7/CycH/MAT1 = CDK7/CycH/MAT1 (Homo sapiens, UniProt P50613); assay: Kinase profiling; type: biochemical; details: 10 semi-logarithmic dilutions from 50 μM, singlicate
CDK8/CycC = CDK8/CycC (Homo sapiens, UniProt P49336); assay: Kinase profiling; type: biochemical; details: 10 semi-logarithmic dilutions from 50 μM, singlicate
CDK3/CycC = CDK3/CycC (Homo sapiens, UniProt Q00526); assay: Kinase profiling; type: biochemical; details: 10 semi-logarithmic dilutions from 50 μM, singlicate
CDC7/DBF4 = CDC7/DBF4 (Homo sapiens, UniProt O00311); assay: Kinase profiling; type: biochemical; details: 10 semi-logarithmic dilutions from 50 μM, singlicate; read-out: IC50 CDC7/DBF4
DYRK1A = DYRK1A (Homo sapiens, UniProt Q13627); assay: Kinase profiling; type: biochemical; details: 10 semi-logarithmic dilutions from 50 μM, singlicate
CDK9/CycT1 = CDK9/CycT1 (Homo sapiens, UniProt P50750); assay: Kinase profiling; type: biochemical; details: 10 semi-logarithmic dilutions from 50 μM, singlicate
CDK1/CycB1 = CDK1/CycB1 (Homo sapiens, UniProt P06493); assay: Kinase profiling; type: biochemical; details: 10 semi-logarithmic dilutions from 50 μM, singlicate
CDK2/CycE1 = CDK2/CycE1 (Homo sapiens, UniProt P24941); assay: Kinase profiling; type: biochemical; details: 10 semi-logarithmic dilutions from 50 μM, singlicate

Sequence of CDK5/p35NCK (Q00535 whole entry): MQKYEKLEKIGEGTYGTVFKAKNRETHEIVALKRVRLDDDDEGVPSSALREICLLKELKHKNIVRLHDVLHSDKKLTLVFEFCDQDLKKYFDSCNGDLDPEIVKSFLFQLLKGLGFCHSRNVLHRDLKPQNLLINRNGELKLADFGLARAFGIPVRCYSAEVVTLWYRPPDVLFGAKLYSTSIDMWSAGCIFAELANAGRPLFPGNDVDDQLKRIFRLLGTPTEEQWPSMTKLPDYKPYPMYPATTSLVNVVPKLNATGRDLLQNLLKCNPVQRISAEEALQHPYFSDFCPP
Sequence of CDK5/p35NCK (Q15078 whole entry partner): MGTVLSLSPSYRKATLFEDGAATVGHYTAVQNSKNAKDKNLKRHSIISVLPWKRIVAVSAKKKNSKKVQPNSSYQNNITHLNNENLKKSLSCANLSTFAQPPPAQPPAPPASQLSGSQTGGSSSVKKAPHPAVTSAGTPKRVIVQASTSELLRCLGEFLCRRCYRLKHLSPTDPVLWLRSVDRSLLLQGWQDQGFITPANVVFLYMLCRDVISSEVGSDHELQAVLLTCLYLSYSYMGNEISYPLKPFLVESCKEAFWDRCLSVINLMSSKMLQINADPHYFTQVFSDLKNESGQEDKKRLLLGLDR
Sequence of CDK5/p25NCK (Q00535 whole entry): as the sequence (Q00535 whole entry) above
Sequence of CDK5/p25NCK (Q15078 99-307 partner limits assumed): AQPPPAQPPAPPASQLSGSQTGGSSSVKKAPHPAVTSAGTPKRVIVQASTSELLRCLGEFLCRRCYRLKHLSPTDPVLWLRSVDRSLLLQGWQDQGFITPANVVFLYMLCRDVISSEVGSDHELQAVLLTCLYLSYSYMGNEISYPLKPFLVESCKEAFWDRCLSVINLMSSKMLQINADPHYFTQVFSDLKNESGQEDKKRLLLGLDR
Sequence of ERK1 (P27361 whole entry): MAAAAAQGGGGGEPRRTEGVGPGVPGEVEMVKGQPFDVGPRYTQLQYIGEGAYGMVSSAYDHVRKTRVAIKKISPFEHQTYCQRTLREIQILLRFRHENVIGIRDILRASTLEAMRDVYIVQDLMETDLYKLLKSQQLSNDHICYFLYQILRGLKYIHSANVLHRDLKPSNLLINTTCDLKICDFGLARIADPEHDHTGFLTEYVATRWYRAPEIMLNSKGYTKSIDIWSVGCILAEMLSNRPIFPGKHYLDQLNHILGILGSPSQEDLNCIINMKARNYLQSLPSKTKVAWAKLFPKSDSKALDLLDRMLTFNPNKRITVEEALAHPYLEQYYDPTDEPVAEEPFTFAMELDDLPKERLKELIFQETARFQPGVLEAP
Sequence of CDK8/CycC (P49336 whole entry): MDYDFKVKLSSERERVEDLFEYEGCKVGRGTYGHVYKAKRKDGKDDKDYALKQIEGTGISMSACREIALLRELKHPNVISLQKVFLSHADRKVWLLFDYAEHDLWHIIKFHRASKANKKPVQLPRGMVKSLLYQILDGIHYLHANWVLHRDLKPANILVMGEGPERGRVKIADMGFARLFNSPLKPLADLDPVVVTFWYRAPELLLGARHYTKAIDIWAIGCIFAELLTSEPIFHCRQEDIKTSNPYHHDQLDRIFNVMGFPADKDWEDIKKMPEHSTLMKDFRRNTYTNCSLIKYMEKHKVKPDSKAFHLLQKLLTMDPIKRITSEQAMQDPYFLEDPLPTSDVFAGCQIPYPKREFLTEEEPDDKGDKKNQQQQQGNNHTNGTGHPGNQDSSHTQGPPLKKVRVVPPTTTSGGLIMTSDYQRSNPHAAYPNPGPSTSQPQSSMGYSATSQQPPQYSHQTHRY
Sequence of CDK8/CycC (P24863 whole entry partner): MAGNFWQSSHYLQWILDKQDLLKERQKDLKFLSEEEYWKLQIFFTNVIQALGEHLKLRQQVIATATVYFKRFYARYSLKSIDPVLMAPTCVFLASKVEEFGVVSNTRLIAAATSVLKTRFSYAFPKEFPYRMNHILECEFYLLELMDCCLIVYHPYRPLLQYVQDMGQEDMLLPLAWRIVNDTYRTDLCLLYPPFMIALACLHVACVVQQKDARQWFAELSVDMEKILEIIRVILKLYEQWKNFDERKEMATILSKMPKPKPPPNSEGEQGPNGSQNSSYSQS
Sequence of HIPK2 (Q9H2X6 whole entry): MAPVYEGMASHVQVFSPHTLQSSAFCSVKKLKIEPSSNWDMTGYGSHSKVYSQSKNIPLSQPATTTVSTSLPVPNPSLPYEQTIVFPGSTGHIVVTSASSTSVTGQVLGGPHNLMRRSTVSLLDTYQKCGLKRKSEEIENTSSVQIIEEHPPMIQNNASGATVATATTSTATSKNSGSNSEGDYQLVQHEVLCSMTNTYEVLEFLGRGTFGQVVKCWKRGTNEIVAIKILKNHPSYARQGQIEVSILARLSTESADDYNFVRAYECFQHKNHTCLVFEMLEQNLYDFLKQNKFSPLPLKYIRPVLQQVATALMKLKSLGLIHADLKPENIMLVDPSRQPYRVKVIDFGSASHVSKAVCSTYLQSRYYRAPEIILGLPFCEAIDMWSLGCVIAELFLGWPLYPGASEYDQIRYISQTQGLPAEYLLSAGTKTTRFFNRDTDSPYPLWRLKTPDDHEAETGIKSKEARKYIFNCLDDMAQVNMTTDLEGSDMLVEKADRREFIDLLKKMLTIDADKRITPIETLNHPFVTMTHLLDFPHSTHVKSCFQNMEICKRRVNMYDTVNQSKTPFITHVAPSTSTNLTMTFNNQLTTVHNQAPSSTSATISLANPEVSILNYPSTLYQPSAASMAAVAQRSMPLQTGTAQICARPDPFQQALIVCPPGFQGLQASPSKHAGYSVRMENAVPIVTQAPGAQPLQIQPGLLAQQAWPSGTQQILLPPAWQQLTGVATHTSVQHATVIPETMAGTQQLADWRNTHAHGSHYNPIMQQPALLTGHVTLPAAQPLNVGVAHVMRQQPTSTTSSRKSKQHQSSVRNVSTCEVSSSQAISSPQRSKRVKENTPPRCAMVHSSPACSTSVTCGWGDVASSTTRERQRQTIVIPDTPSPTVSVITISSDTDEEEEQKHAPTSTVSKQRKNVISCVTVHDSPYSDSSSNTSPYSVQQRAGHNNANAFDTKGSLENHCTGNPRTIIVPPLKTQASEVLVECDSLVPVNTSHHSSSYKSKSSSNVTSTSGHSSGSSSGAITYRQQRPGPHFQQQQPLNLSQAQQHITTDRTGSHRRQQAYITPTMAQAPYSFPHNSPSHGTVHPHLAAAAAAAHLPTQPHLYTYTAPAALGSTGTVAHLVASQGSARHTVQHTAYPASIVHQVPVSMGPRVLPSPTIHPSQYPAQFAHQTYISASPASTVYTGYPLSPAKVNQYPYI
Sequence of CDK6/CycD1 (Q00534 whole entry): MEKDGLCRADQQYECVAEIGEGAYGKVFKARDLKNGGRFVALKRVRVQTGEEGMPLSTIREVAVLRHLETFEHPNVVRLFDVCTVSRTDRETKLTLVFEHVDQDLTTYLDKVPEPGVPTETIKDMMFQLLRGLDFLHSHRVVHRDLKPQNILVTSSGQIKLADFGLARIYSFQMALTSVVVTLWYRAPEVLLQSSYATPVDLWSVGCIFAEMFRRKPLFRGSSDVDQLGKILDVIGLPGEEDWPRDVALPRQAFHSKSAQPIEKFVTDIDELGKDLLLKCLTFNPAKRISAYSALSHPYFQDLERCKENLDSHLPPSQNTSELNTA
Sequence of CDK6/CycD1 (P24385 whole entry partner): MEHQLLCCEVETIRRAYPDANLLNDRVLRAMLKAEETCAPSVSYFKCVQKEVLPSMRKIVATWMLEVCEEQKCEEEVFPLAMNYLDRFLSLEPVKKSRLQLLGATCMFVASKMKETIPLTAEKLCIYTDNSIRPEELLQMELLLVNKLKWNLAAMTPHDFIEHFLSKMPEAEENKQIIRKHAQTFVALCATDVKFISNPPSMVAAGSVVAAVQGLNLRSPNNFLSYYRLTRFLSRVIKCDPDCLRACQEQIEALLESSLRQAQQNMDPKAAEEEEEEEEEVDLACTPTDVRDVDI
Sequence of CDK6/CycD3 (Q00534 whole entry): as the sequence (Q00534 whole entry) above
Sequence of CDK6/CycD3 (P30281 whole entry partner): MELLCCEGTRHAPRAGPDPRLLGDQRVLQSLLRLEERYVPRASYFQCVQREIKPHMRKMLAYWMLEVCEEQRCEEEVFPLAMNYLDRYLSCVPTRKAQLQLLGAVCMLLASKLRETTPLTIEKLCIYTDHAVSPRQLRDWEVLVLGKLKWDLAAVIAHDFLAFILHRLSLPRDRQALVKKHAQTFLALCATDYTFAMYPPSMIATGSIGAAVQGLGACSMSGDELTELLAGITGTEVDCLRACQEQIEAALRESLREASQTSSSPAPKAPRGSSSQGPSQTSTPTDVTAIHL
Sequence of CDK3/CycC (Q00526 whole entry): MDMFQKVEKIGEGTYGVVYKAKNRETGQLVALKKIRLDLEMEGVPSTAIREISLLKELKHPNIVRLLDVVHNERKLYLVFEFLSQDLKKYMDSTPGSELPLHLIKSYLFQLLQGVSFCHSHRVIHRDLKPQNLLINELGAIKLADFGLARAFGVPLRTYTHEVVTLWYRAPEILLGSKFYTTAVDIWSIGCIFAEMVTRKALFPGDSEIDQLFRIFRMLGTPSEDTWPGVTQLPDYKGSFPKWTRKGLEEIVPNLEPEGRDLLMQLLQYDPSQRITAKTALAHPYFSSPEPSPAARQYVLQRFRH
Sequence of CDK3/CycC (P24863 whole entry partner): as the sequence (P24863 whole entry partner) above

| Compound | IC50 (CDK6/CycD3) [nM] | IC50 (CDK5/p35NCK) [nM] | IC50 (CDK12wt/CycK) [nM] | IC50 (DYRK2) [nM] | IC50 (CDK3/CycE1) [nM] | IC50 (CDK4/CycD3) [nM] | IC50 (CDK2/CycA2) [nM] | cell cycle arrest by DNA content [1] | IC50 (CDK6/CycD1) [nM] | IC50 (CDK19/CycC) [nM] | IC50 (CDK9/CycK) [nM] | IC50 (CDK1/CycA2) [nM] | IC50 (CDK1/CycE1) [nM] | IC50 (ERK1) [nM] | IC50 (CDK5/p25NCK) [nM] | IC50 (PCTAIRE1/CycY) [nM] | IC50 (PIM1) [nM] | IC50 (HIPK2) [nM] | IC50 (CDK7/CycH/MAT1) [nM] | IC50 (CDK8/CycC) [nM] | also measured |
| --- | --- | --- | --- | --- | --- | --- | --- | --- | --- | --- | --- | --- | --- | --- | --- | --- | --- | --- | --- | --- | --- |
| CC(O)CCN1CCN(c2ccc(Nc3ncc4ccc(=O)n([C@@H]5CC6CCC5C6)c4n3)cc2)CC1 (stereo partly drawn) [PS005, 8-((2R)-bicyclo[2.2.1]heptan-2-yl)-2-((4-(4-(3-hydroxybutyl)piperazin-1-yl)phenyl)amino)pyrido[2,3-d]pyrimidin-7(8H)-one] | 16.9 | 34.7 | 30.8 | 4720 | 27.2 | 2.97 | 13 | accumulation of cells both in G1 and G2/M phases | < 1.5 | 234 | 10.1 | 180 | 173 | 4530 | 72.5 | 7.69 | 7190 | 6060 | 72.3 | 17.1 | cell death (sub-G1 accumulation) [1]: led to cell death; IC50 (CDK3/CycC): 54.1 nM; IC50 (CDC7/DBF4): 1530 nM; IC50 (DYRK1A): 1380 nM; IC50 (CDK9/CycT1): 21.4 nM; IC50 (CDK1/CycB1): 40.7 nM; IC50 (CDK2/CycE1): 17.2 nM |
| CC(O)COC1CCN(c2ccc(Nc3ncc4ccc(=O)n([C@@H]5CC6CCC5C6)c4n3)cc2)CC1 (stereo partly drawn) [PS006, 8-((2R)-bicyclo[2.2.1]heptan-2-yl)-2-((4-(4-(2-hydroxypropoxy)piperidin-1-yl)phenyl)amino)pyrido[2,3-d]pyrimidin-7(8H)-one] | 108 | 771 | 1010 | > 50000 | 306 | 46.6 | 203 | induced G2/M arrest; also recorded: arrested cells in G2/M phases | 12.5 | 4130 | 148 | 4280 | 1210 | 8320 | 1460 | 3840 | > 50000 | 14700 | 8000 | 103 | IC50 (CDK3/CycC): 885 nM; IC50 (CDC7/DBF4): 5570 nM; IC50 (DYRK1A): 46800 nM; IC50 (CDK9/CycT1): 264 nM; IC50 (CDK1/CycB1): 1960 nM; IC50 (CDK2/CycE1): 108 nM |
| O=c1ccc2cnc(Nc3ccc(N4CCNCC4)cc3)nc2n1[C@@H]1CC2CCC1C2 (stereo partly drawn) [PS007, 8-((2R)-bicyclo[2.2.1]heptan-2-yl)-2-((4-(piperazin-1-yl)phenyl)amino)pyrido[2,3-d]pyrimidin-7(8H)-one] | 9.66 | 15.9 | 25.8 | 2310 | 11.9 | 2.25 | 17.1 | accumulation of cells both in G1 and G2/M phases | < 1.5 | 288 | 7.17 | 208 | 40.8 | 2750 | 52.3 | 4.04 | 485 | 5560 | 91.1 | 307 | cell death (sub-G1 accumulation) [1]: led to cell death; IC50 (CDK3/CycC): 40.1 nM; IC50 (CDC7/DBF4): 537 nM; IC50 (DYRK1A): 1180 nM; IC50 (CDK9/CycT1): 13.6 nM; IC50 (CDK1/CycB1): 97.3 nM; IC50 (CDK2/CycE1): 7.8 nM |

From US20230042936A1, “PYRIDO[2,3-d]PYRIMIDIN-7(8H)-ONES AS CDK INHIBITORS” (PROSENESTAR LLC, priority 2020, published 2023)
